Experimental data reported in US10323020B2, “Substituted piperidinyl tetrahydroquinolines” (Bayer Pharma Aktiengesellschaft, priority 2013, dated 2019).
Counter-ions that a name gives are not always drawn.

Biological target: recombinant human α2C receptor (Homo sapiens (Human), UniProt P18825)
Test: Antagonism against the adrenoreceptor α2C (luminescence, noradrenaline-stimulated CHO cells)
Format: cell-based
Conditions: noradrenaline 20 nM; CHO cell line with Gαqi3 and mtOb
Method: Antagonism against the adrenoreceptor α1A was tested using a recombinant human α1A receptor CHO cell line which additionally also recombinantly expresses mtAeq (mitochondrial aequorin). Antagonism against the adrenoreceptor α2A was tested using a recombinant human α2A-Gα16 receptor fusion protein CHO cell line (PerkinElmer Life Sciences) which additionally also recombinantly expresses mtAeq. Antagonism against the adrenoreceptor α2B was tested using a recombinant human α2B receptor CHO cell line (PerkinElmer Life Sciences) which additionally also recombinantly expresses mtAeq. Antagonism against the adrenoreceptor α2C was tested using a recombinant human α2C receptor CHO cell line which additionally also recombinantly expresses a chimaric G protein (Gαqi3) and mtOb (mitochondrial obelin).
The cells were cultivated at 37° C. and 5% CO2 in Dulbecco's modified Eagle's Medium/NUT mix F12 with L-glutamine which additionally contains 10% (v/v) inactivated foetal calf serum, 1 mM sodium pyruvate, 0.9 mM sodium bicarbonate, 50 U/ml penicillin, 50 μg/ml streptomycin, 2.5 μg/ml amphotericin B and 1 mg/ml Geneticin. The cells were passaged with enzyme-free Hank's-based cell dissociation buffer. All cell culture reagents used were from Invitrogen (Carlsbad, USA).
Luminescence measurements were carried out on white 384-well microtitre plates. 2000 cells/well were plated in a volume of 25 μl and cultivated for one day at 30° C. and 5% CO2 in cell culture medium with coelenterazine (α2A and α2B: 5 μg/ml; α1a/c and α2C: 2.5 μg/ml). Serial dilutions of the test substances (10 μl) were added to the cells. After 5 minutes, noradrenaline was added to the cells (35 μl; final concentrations: 20 nM (α1a/c and α2C) or 200 nM (α2A and α2B)), and the emitted light was measured for 50 seconds using a CCD (charge-coupled device) camera (Hamamatsu Corporation, Shizuoka, Japan) in a light-tight box. The test substances were tested up to a maximum concentration of 10 μM. The IC50 values were calculated from the appropriate dose-response curves.

recombinant human α2C receptor, sequence (P18825 whole entry): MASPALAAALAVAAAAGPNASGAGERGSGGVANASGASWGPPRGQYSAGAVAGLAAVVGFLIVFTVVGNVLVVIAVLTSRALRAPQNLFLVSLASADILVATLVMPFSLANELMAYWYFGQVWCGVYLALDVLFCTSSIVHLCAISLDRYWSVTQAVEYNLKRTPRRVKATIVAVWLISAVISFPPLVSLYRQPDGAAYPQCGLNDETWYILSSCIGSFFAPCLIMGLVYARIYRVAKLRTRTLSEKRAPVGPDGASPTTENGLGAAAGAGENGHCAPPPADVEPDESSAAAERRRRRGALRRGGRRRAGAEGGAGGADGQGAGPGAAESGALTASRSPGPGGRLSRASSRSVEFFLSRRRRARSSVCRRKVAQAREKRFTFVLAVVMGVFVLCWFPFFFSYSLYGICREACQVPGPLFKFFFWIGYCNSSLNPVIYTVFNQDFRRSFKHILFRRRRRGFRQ

SMILES | IC50 [nM]
COc1ccc2c(c1)CCN(C1CCN(C(=O)c3cnc(N4CC5(COC5)C4)nc3)CC1)C2 [Example 10, [4-(6-Methoxy-3,4-dihydroisoquinolin-2(1H)-yl)piperidin-1-yl][2-(2-oxa-6-azaspiro[3.3]hept-6-yl)pyrimidin-5-yl]methanone] | 30
COCCNc1ncc(C(=O)N2CCC(N3CCc4ccccc4C3)CC2)cn1 [Example 1, [4-(3,4-Dihydroisoquinolin-2(1H)-yl)piperidin-1-yl]{2-[(2-methoxyethyl)amino]pyrimidin-5-yl}methanone] | 82
CCC(COC)Nc1ncc(C(=O)N2CCC(N3CCc4ccc(OC)cc4C3)CC2)cn1 (racemic) [Example 4, (rac)-{2-[(1-Methoxybutan-2-yl)amino]pyrimidin-5-yl}[4-(7-methoxy-3,4-dihydroisoquinolin-2(1H)-yl)piperidin-1-yl]methanone] | 5
CCC(COC)Nc1ncc(C(=O)N2CCC(N3CCc4ccc(F)cc4C3)CC2)cn1 (racemic) [Example 2, (rac)-[4-(7-Fluoro-3,4-dihydroisoquinolin-2(1H)-yl)piperidin-1-yl]{2-[(1-methoxybutan-2-yl)amino]pyrimidin-5-yl}methanone] | 26
CC1CN(c2ncc(C(=O)N3CCC(N4CCc5ccccc5C4)CC3)cn2)CC(C)O1 (stereo not drawn) [Example 13, [4-(3,4-Dihydroisoquinolin-2(1H)-yl)piperidin-1-yl][2-(2,6-dimethylmorpholin-4-yl)pyrimidin-5-yl]methanone (Cis Isomer)] | 47
CCC(CO)Nc1ncc(C(=O)N2CCC(N3CCc4ccccc4C3)CC2)cn1 (racemic) [Example 7, (rac)-[4-(3,4-Dihydroisoquinolin-2(1H)-yl)piperidin-1-yl]{2-[(1-hydroxybutan-2-yl)amino]pyrimidin-5-yl}methanone] | 68
O=C(c1cnc(N2CCS(=O)(=O)CC2)nc1)N1CCC(N2CCc3ccccc3C2)CC1 [Example 12, [4-(3,4-Dihydroisoquinolin-2(1H)-yl)piperidin-1-yl][2-(1,1-dioxidothiomorpholin-4-yl)pyrimidin-5-yl]methanone] | 26
CCC(COC)Nc1ncc(C(=O)N2CCC(N3CCc4ccccc4C3)CC2)cn1 (racemic) [Example 6, (rac)-[4-(3,4-Dihydroisoquinolin-2(1H)-yl)piperidin-1-yl]{2-[(1-methoxybutan-2-yl)amino]pyrimidin-5-yl}methanone] | 31
O=C(c1cnc(N2CC3(COC3)C2)nc1)N1CCC(N2CCc3ccc(F)cc3C2)CC1 [Example 9, [4-(7-Fluoro-3,4-dihydroisoquinolin-2(1H)-yl)piperidin-1-yl][2-(2-oxa-6-azaspiro[3.3]hept-6-yl)pyrimidin-5-yl]methanone] | 16
CC1(C)CN(c2ncc(C(=O)N3CCC(N4CCc5ccccc5C4)CC3)cn2)CCO1 [Example 15, [4-(3,4-Dihydroisoquinolin-2(1H)-yl)piperidin-1-yl][2-(2,2-dimethylmorpholin-4-yl)pyrimidin-5-yl]methanone] | 68
CC1CN(c2ncc(C(=O)N3CCC(N4CCc5ccccc5C4)CC3)cn2)CC(C)O1 (stereo not drawn) [Example 14, [4-(3,4-Dihydroisoquinolin-2(1H)-yl)piperidin-1-yl][2-(2,6-dimethylmorpholin-4-yl)pyrimidin-5-yl]methanone (Trans Isomer)] | 24
CCC(COC)Nc1ncc(C(=O)N2CCC(N3CCc4cc(OC)ccc4C3)CC2)cn1 (racemic) [Example 5, (rac)-{2-[(1-Methoxybutan-2-yl)amino]pyrimidin-5-yl}[4-(6-methoxy-3,4-dihydroisoquinolin-2(1H)-yl)piperidin-1-yl]methanone] | 20
O=C(O)[C@H]1CCCN1c1ncc(C(=O)N2CCC(N3CCc4ccccc4C3)CC2)cn1 [Example 11, 1-(5-{[4-(3,4-Dihydroisoquinolin-2(1H)-yl)piperidin-1-yl]carbonyl}pyrimidin-2-yl)-D-proline Hydrochloride] | 96
